Consider one molecule from patent US20180028553A1, “USE OF STING AGONIST AS CANCER TREATMENT” (The University of Chicago, priority 2013, published 2018).

SMILES strings stand for the structures. “Also recorded” adds a separate entry of the source.

Assay [1] concerns innate cytokines in BM-DCs. Description: Quantitative RT-PCR analysis of cytokines in BM-DCs. The assay is classed as cell-based, mouse. To be noted: DMXAA 25 μg/ml, 4 h. The protocol: Quantitative RT-PCR analysis of cytokines. […] Total RNA was isolated using the RNeasy® kit (Qiagen) and incubated with Deoxyribonuclease I, Amplification Grade (Invitrogen). cDNA was synthesized using High Capacity cDNA Reverse Transcription Kit (Applied Biosystem) and expression of cytokines was measured by real-time qRT-PCR using specific primers/probes for mouse INF-β, TNF-α, IL-6 and IL-12p40, using a 7300 Real Time PCR system (Applied Biosystem). The results are expressed as 2^−ΔCt using 18s as endogenous control.

Assay [2] relates to BM-DCs (CD40, CD86, MHC class II). Description: Expression of activation markers on BM-DCs by flow cytometry. The format is cell-based, mouse. Conditions: WT versus STING-deficient BM-DCs; DMXAA 25 μg/ml or LPS 100 ng/ml. As to the method: Expression of activation markers by flow cytometry. […] Stained cells were analyzed using LSR II cytometer with FACSDiva software (BD) or FACSVerse with FACSuite software. Data analysis was conducted with FlowJo software (Tree Star).
In general terms: In flow cytometry, cells or beads pass a laser one at a time.

For `Cc1ccc2c(=O)c3cccc(CC(=O)O)c3oc2c1C` [DMXAA, 5,6-dimethylXAA (xanthenone-4-acetic acid)], the “expression of innate cytokines” value in assay [1] (STING^−/− BM-DCs) is “not STING^−/− BM-DCs”; in assay [1] (WT BM-DCs), “upregulated other cytokines such as TNFα, IL6, IL1, IL10, and IL12 in a STING dependent manner; also recorded: IFN-β, TNF-α, IL-1β, IL-6 and IL12p35 were induced”. Also, in assay [2], the “induction of co-stimulatory molecules (CD40, CD86, MHC class II)” value was “upregulated activation markers such as CD40 and C86 in a STING dependent manner; also recorded: observed only in WT cells”.
